From patent US20210276967A1 (OSPEDALE SAN RAFFAELE S.R.L., priority 2018, published 2021)
“And” between values parts separate entries of the source, which are not always exact repeats. Equal entries are not always repeated. Where two headings read alike, the source gives them in different places.

Experiment: Mouse PK studies (plasma and liver exposure)
Assay type: in vivo, C57BL/6 mice
Set-up: Liver [mM]: unit not given here
Conditions: for Plasma concentrations / concentration at 24 h / concentration at 8 h / concentration at 0.25 h / concentration at 0.5 h / concentration at 1 h / concentration at 2 h / concentration at 4 h / concentration at 6 h: PO 100 mpk in 0.5% methocell; for AUC(0-t): read-out: AUC (0-24 h); for AUC: read-out: AUC Extrap
Excerpt: C57BL/6 mice are used to evaluate plasma and liver exposure and pharmacokinetic parameters after intravenous and oral administration (from 2 to 200 mpk according to the compound tested and the administration route). 12 (+3 spare) healthy C57BL/6N male mice are obtained from Charles River S.p.A. Calco (Como), Italy. Animals are ordered weighing 21 to 27 grams and approximately 7 weeks old. Before and during testing, animals are housed in Individual Ventilated Cages (IVCs Tecniplast) with sawdust as bedding (three animals for cage). Cages are identified by a color code label recording the sample ID, animal number and details of treatment (route, dose and sex). Animals are identified by unique number on tail via permanent marker. Animal room controls are set to maintain temperature within the range from 20 to 24° C. and relative humidity within the range from 40 to 70% and an average daily airflow of at least 10 fresh air changes per hour. Actual conditions are recorded. The room is lit by fluorescent tubes controlled to give an artificial cycle of 12 hours light and 12 hours dark each day. All animals are weighed immediately before testing. Animals are dosed IV in a fed state and PO in a fasted state.
Compounds (from 0.4 to 20 mg/mL according to the compound tested and the administration route) are dissolved in DMSO/PEG400/H2O (20/60/20) for IV administration and 0.5% Methocel E50 or 20% Hydroxypropyl-β-cyclodextrin (HP-β-CD) in citrate buffer pH=5 for PO administration. The appropriate dose volume of the test item, calculated for each animal according to body weight (administration volume: 5 mL/kg for IV or 5 mL/kg or 10 mL/kg for PO), is administered by injection into lateral tail vein using 2.5 mL syringe (BD Plasipak) for IV administration and administered orally by gavage using 5 mL Syringe (BD Plastipak) for PO administration. Whole blood sample (about 0.200 mL) is collected via retro orbital sinus using Isoflurane as anesthetic. Blood is collected in Li-Heparin Sartsted® gel tubes appropriately labeled indicating animal number and time point. Tubes are put in wet ice and then centrifuged within 15 minutes from blood collection. Centrifugation is performed using a Heraeus Multifuge® 3S/3S-R set, at 2200×g for 10 minutes, internal temperature is kept at 4° C. After the centrifugation, about 100 μL of plasma samples are obtained and immediately transferred to 1.5 mL Eppendorf tubes and frozen at −20° C. (24/24 h alarmed). Whole blood samples are collected at different times point (0-0.25-0.5-1-2-4-6-8-24 hours) after dosing and kept frozen (−20° C.) until assayed by LC/MS/MS. Livers are explanted at different time point (0-8-24 hours), washed with saline solution, transferred to Eppendorf tubes and frozen at −80° C. until assayed by LC/MS/MS. Analytical procedures: Plasma samples are extracted using Liquid Handling Robot Hamilton StarPlus by protein precipitation with acetonitrile. Then the samples are centrifuged (3000 rpm×15 min at 4° C.) and the supernatant transferred and dried under nitrogen. The samples are reconstituted in water/acetonitrile 90/10 or 50/50 and then injected directly into an UPLC column. Sample analyses are performed using an API 4000 or/and API 5000 or/and API 4000QTrap Mass Spectrometer interfaced via the Turbo Ion Spray (ESI) to an LC system consisting of an Acquity UPLC Sample Manager autosampler and Acquity UPLC Binary Solvent Manager Pump. The results are calculated using Analyst Software linear regression with 1/x*x weighting. The Assay Precision is calculated for the Quality Controls by Watson Lims database.
Cmax is the maximum compound concentration from oral dosing; Tmax is the time at which Cmax is reached; AUC (0-24) is the area under the concentration vs time curve from 0 to 24 hours; AUC extrap is the area under the curve (AUC) extrapolated to infinity, from dosing time based on the last observed concentration. […]

[1] = male, C57BL/6N, mouse, plasma, po, 100 mg/kg, plasma, PO 100 mg/kg in 0.5% methocell, mice, Mean
[2] = male, C57BL/6N, mouse, plasma, po, 100 mg/kg, plasma, PO 100 mg/kg in 0.5% methocell, mice, individual subject
[3] = plasma, PO 100 mg/kg in 0.5% methocell, mice, individual subject, 100 mg/kg

Nc1ccc(C(=O)Nc2cc(F)c(F)c(F)c2)cc1S(N)(=O)=O [Example E3, 4-amino-3-sulfamoyl-N-(3,4,5-trifluorophenyl)benzamide]
Plasma concentrations (0.25 Hours, individual subject, 100 mg/kg): 5.05 µM and 3.95 µM | Plasma concentrations (0.5 Hours, individual subject, 100 mg/kg): 7.23 µM and 10.6 µM | Plasma concentrations (1 Hours, individual subject, 100 mg/kg): 17.2 µM and 9.61 µM | Plasma concentrations (2 Hours, individual subject, 100 mg/kg): 10.7 µM and 17.0 µM | Plasma concentrations (4 Hours, individual subject, 100 mg/kg): 11.2 µM and 10.6 µM | Plasma concentrations (6 Hours, individual subject, 100 mg/kg): 10.5 µM and 9.06 µM | Plasma concentrations (8 Hours, individual subject, 100 mg/kg): 10.4 µM and 12.1 µM | concentration at 24 h (8 Hours, individual subject, 100 mg/kg, read-out: Liver concentrations): 125.87 µM and 119.96 µM | Plasma concentrations (24 Hours, individual subject, 100 mg/kg): 0.268 µM and 0.184 µM and 0.0502 µM | concentration at 24 h (24 Hours, individual subject, 100 mg/kg, read-out: Liver concentrations): 0.6272 µM and 3.0342 µM and 1.8500 µM | Kp at 8 h (male, C57BL/6N, mouse, liver, 100 mpk, 8 h after PO administration, read-out: liver levels higher than plasma (ratio liver/plasma concentration)): 13 | concentration at 8 h (male, C57BL/6N, mouse, liver, po, 100 mg/kg, 8 Hours, Mean, read-out: Liver concentrations): 129 µM | concentration at 8 h (male, C57BL/6N, mouse, liver, po, 100 mg/kg, 8 Hours, individual subject, read-out: Liver concentrations): 143 µM | concentration at 24 h (male, C57BL/6N, mouse, liver, po, 100 mg/kg, 24 Hours, Mean, read-out: Liver concentrations): 2 µM | concentration at 0.25 h (male, C57BL/6N, mouse, plasma, po, 100 mg/kg, 0.25 Hours, Mean, read-out: Plasma concentrations): 5 µM | concentration at 0.25 h (male, C57BL/6N, mouse, plasma, po, 100 mg/kg, 0.25 Hours, individual subject, read-out: Plasma concentrations): 6.15 µM | concentration at 0.5 h (male, C57BL/6N, mouse, plasma, po, 100 mg/kg, 0.5 Hours, Mean, read-out: Plasma concentrations): 9 µM | concentration at 0.5 h (male, C57BL/6N, mouse, plasma, po, 100 mg/kg, 0.5 Hours, individual subject, read-out: Plasma concentrations): 7.77 µM | concentration at 1 h (male, C57BL/6N, mouse, plasma, po, 100 mg/kg, 1 Hours, Mean, read-out: Plasma concentrations): 12 µM | concentration at 1 h (male, C57BL/6N, mouse, plasma, po, 100 mg/kg, 1 Hours, individual subject, read-out: Plasma concentrations): 10.2 µM | concentration at 2 h (male, C57BL/6N, mouse, plasma, po, 100 mg/kg, 2 Hours, Mean, read-out: Plasma concentrations): 14 µM | concentration at 2 h (male, C57BL/6N, mouse, plasma, po, 100 mg/kg, 2 Hours, individual subject, read-out: Plasma concentrations): 13 µM | concentration at 4 h (male, C57BL/6N, mouse, plasma, po, 100 mg/kg, 4 Hours, Mean, read-out: Plasma concentrations): 11 µM | concentration at 4 h (male, C57BL/6N, mouse, plasma, po, 100 mg/kg, 4 Hours, individual subject, read-out: Plasma concentrations): 10.9 µM | concentration at 6 h (male, C57BL/6N, mouse, plasma, po, 100 mg/kg, 6 Hours, Mean, read-out: Plasma concentrations): 10 µM | concentration at 6 h (male, C57BL/6N, mouse, plasma, po, 100 mg/kg, 6 Hours, individual subject, read-out: Plasma concentrations): 11.9 µM | concentration at 8 h (male, C57BL/6N, mouse, plasma, po, 100 mg/kg, 8 Hours, Mean, read-out: Plasma concentrations): 10 µM | concentration at 8 h (male, C57BL/6N, mouse, plasma, po, 100 mg/kg, 8 Hours, individual subject, read-out: Plasma concentrations): 9.01 µM | concentration at 24 h (male, C57BL/6N, mouse, plasma, po, 100 mg/kg, 24 Hours, Mean, read-out: Plasma concentrations): 0.2 µM | Cmax (male, C57BL/6N, mouse, plasma, po, 100 mg/kg, PO 100 mg/kg in 0.5% methocell, mice, Mean): 16 µM | Cmax (male, C57BL/6N, mouse, plasma, po, 100 mg/kg, PO 100 mg/kg in 0.5% methocell, mice, individual subject): 17.2 µM | AUC(0-t) [1]: 172 µM·h | AUC [1]: 173 µM·h | Tmax (male, C57BL/6N, mouse, plasma, po, 100 mg/kg, plasma, PO 100 mg/kg in 0.5% methocell, mice, Mean, read-out: Tmax): 1.7 h | AUC(0-t) [2]: 171 µM·h | AUC [2]: 172 µM·h | Tmax (male, C57BL/6N, mouse, plasma, po, 100 mg/kg, plasma, PO 100 mg/kg in 0.5% methocell, mice, individual subject, read-out: Tmax): 1 h | clearance (male, C57BL/6N, mouse, plasma, mice, read-out: in vivo clearance): 10 mL/min/kg | AUC (0-24 h) [3]: 186 µM·h and 160 µM·h | AUC Extrap [3]: 186.4 µM·h and 161.7 µM·h | Cmax [3]: 17 µM and 13 µM | Tmax [3]: 2.00 h

Cc1cc(N)c(S(N)(=O)=O)cc1C(=O)Nc1cc(F)c(F)c(F)c1 [Example E17, 4-amino-2-methyl-5-sulfamoyl-N-(3,4,5-trifluorophenyl)benzamide]
Liver [mM] (PO 25 mg/kg in 0.5% methocell, mice): 317 | Liver [mM] (PO 75 mg/kg in 0.5% methocell, mice): 747 | Liver [mM] (PO 150 mg/kg in 0.5% methocell, mice): 677 | Kp (male, C57BL/6N, mouse, liver, PO 25 mg/kg in 0.5% methocell, mice): 15.9 | Kp (male, C57BL/6N, mouse, liver, PO 75 mg/kg in 0.5% methocell, mice): 14.4 | Kp (male, C57BL/6N, mouse, liver, PO 150 mg/kg in 0.5% methocell, mice): 13.8
